The values below come from US5721223A, “Imidazo[1,2-a] Pyridinyldiacid compounds for cognitive enhancement and for treatment of cognitive disorders and neurotoxic injury” (priority 1995, dated 1998).

In this assay the target is T1, glycine receptor site (Rattus norvegicus, UniProt P35439).
T1 construct: Synaptic plasma membranes (SPM) were prepared from rat forebrain; from tissue; host or cells: rat forebrain synaptic plasma membranes
Briefly: Glycine binding assay ([3H]GLY). Particulars: [3H]glycine 10 nM, rat forebrain SPM. How it is done:
Synaptic plasma membranes (SPM) were prepared from rat forebrain and stored as previously described [J. B. Monahan and J. Michel, J. Neurochem, 48, 1699-1708 (1987)]. Frozen membranes were thawed and diluted 1:20 with 0.04% Triton X-100 in 50 mM tris/acetate (pH 7.4). Following incubation at 37° C. for 30 min., the SPM were collected by centrifugation at 95,000×g for 15 min. The pellet was resuspended in 50 mM tris/acetate (pH 7.4, Triton-free) and hand-homogenized five times. The membranes were again centrifuged as above. The pellet was washed two additional times with 50 mM tris/acetate (without homogenization) and centrifuged. The final pellet was resuspended with homogenization in 50 mM tris/acetate. In the general receptor binding assay procedure, 10 nM [3H]glycine was added to the appropriate concentration of the test compounds and the assay initiated by the addition of 0.2-0.4 mg of ice cold SPM. […] Beckman MP scintillation cocktail (5 mL) containing 7 mL/liter acetic acid was then added and the samples counted on a Beckman LS 5800 liquid scintillation counter with automatic corrections for quenching and counting efficiency. […] The binding of [3H]glycine to the SPM was analyzed using Scatchard and Hill transformations and the Ki for other compounds was determined using logit-log analysis. […]

Counter-ions that a name gives are not always drawn.

The Ki is the equilibrium dissociation constant of an inhibitor or competing ligand from its target. Compound `O=C(O)Cc1c(C(=O)O)nc2ccccn12` [Example 3, hydrochloride] yielded a Ki of 51 µM.
